Measured values: US5238938A, “Indole derivatives” (Otsuka Pharmaceutical Co., Ltd., priority 1989, dated 1993)
Converted amounts (≈) assume the structure as drawn.

System: superoxide radicals (O2^-) released from the peritoneal macrophage cells of guinea pig
Experiment: Inhibitory effect against superoxide radicals (O2^-) released from the peritoneal macrophage cells of guinea pig by stimulation
Type: cell-based
Details: Cavia porcellus, Peritoneal macrophage cell; guinea pig peritoneal macrophages 2×10^6 cells/ml; FMLP 10^-7 M; cytochrome C reduction, OD550; 37° C.; read-out: 50% inhibitory concentration (IC50), superoxide radical release
Experimental: Inhibitory effect against superoxide radicals (O2^-) released from the peritoneal macrophage cells of guinea pig by stimulation
Mineral oil (15 ml) was intraperitoneally administered to a guinea pig, then 96 hours after the administration, the peritoneal macrophage cells were samples.
Superoxide redicals (O2^-) were determined by means of reduction of cytochrome C method according to the procedure described in an article by T. Matsumoto, K. Takeshige and S. Minakami: Biochemical and Biophysical Research Communications, Vol. 88, No. 3, pp. 974-979, (1979).
The peritoneal macrophage cells were added to make the final concentration of 2×10^6 cells/ml into 1 ml of 80 μM-cytochome C solution, and the test compound of indole derivative of the present invention was added thereto to make the test group sample. On the other hand, water was added in place of the indole derivative of the present invention to make the control group sample. Each of the test group sample and the control group sample was subjected to pure incubaiton at 37° C. for 1 minute.
As to the stimulating agent for releasing superoxide radicals (O2^-), FMLP (formylmethionyl leucyl phenylalanine) was added to make the final concentration thereof to 10^-7 M, to each of the test group sample and the control group sample. Then both samples were subjected to additional reaction by incubation for 1 minute.
Difference of the optical absorbances measured at 550 nm (OD550) of both test group and control group samples were determined, and the 50% inhibitory concentration (IC50) was obtained by calculating as the ratio of OD550 of the test group sample to that of the control group sample.

First: COc1c(Cc2c[nH]c3ccc(F)cc23)[nH]c(=O)c(CC(C)C)[n+]1[O-] [Compound E-34a, 6-[(5-Fluoro)indol-3-yl]methyl-3-isobutyl-5-methoxy-1,2-dihydropyrazin-2-one 4-oxide]
Second: COc1c(Cc2c[nH]c3ccc(Br)cc23)[nH]c(=O)c(CC(C)C)[n+]1[O-] [Compound E-34c, 6-[(5-Bromo)indol-3-yl]methyl-3-isobutyl-5-methoxy-1,2-dihydropyrazin-2-one 4-oxide]
The IC50 of the first is 2-fold higher: 10 µg/mL (≈ 29 µM) for the first, 5 µg/mL (≈ 12.3 µM) for the second.

COc1c(Cc2c[nH]c3c(C)cccc23)[nH]c(=O)c(CC(C)C)[n+]1[O-] [Compound E-34f, 3-Isobutyl-5-methoxy-6-[(7-methyl)indol-3-yl]methyl-1,2-dihydropyrazin-2-one 4-oxide] and COc1c(Cc2c[nH]c3ccc(O)cc23)[nH]c(=O)c(CC(C)C)[n+]1[O-] [Compound E-34j, 6-[(5-Hydroxy)indol-3-yl]methyl-3-isobutyl-5-methoxy-1,2-dihydropyrazin-2-one 4-oxide] are within 1.5-fold of each other in IC50: 7 µg/mL (≈ 20.5 µM) for the first, 10 µg/mL (≈ 29.1 µM) for the second.

Going from CC(=O)Nc1c(Cc2c[nH]c3ccccc23)[nH]c(=O)c(CC(C)C)[n+]1[O-] [Compound A-63, 5-acetamino-6-(indol-3-yl)methyl-3-isobutyl1,2-dihydropyrazin-2-one 4-oxide] to CC(C)Cc1c(=O)[nH]c(Cc2c[nH]c3ccccc23)c(Cl)[n+]1[O-] [Compound E-57a, 5-Chloro-6-(indol-3-yl)methyl-3-isobutyl-1,2-dihydropyrazin-2-one 4-oxide], the IC50 falls from 30 µg/mL (≈ 84.6 µM) to 10 µg/mL (≈ 30.1 µM) (3-fold).

Compared with COc1c(Cc2c[nH]c3ccccc23)nc(Cl)c(CC(C)C)[n+]1[O-] [Compound A-46, 3-chloro-5-(indol-3-yl)methyl-2-isobutyl-6-methoxypyrazine-1-oxide], CC(C)Cc1c(Cl)nc(Cc2c[nH]c3ccccc23)c(=O)n1O [Compound A-38, 5-chloro-1-hydroxy-3-(indol-3-yl)methyl-6-isobutyl-1,2-dihydropyrazin-2-one] is 5-fold lower in IC50: 30 µg/mL (≈ 86.7 µM) for the first, 6 µg/mL (≈ 18.1 µM) for the second.

Going from CC(C)C[C@H]1C(=O)N[C@@H](Cc2c[nH]c3ccccc23)C(=O)N1O [Compound A-29a, (3S,6S)-1-Hydroxy-3-(indol-3-yl)methyl-6-isobutylpiperazine-2,5-dione] to CC(C)C[C@@H]1C(=O)N[C@@H](Cc2c[nH]c3ccccc23)C(=O)N1O [Compound A-30a, (3S,6R)-1-Hydroxy-3-(indol-3-yl)methyl-6-isobutylpiperazine-2,5-dione], the IC50 falls from 50 µg/mL (≈ 159 µM) to 10 µg/mL (≈ 31.7 µM) (5-fold).

Compared with COc1ccc2[nH]cc(Cc3[nH]c(=O)c(CC(C)C)[n+]([O-])c3OC)c2c1 [Compound E-34h, 3-Isobutyl-5-methoxy-6-[(5-methoxy)indol-3-yl]methyl-1,2-dihydropyrazin-2-one 4-oxide], COc1ccc2[nH]c(C)c(Cc3[nH]c(=O)c(CC(C)C)[n+]([O-])c3OC)c2c1 [Compound E-34k, 3-Isobutyl-5-methoxy-6-[(5-methoxy-2-methyl)indol-3-yl]methyl-1,2-dihydropyrazin-2-one 4-oxide] is 2.5-fold lower in IC50: 5 µg/mL (≈ 14 µM) for the first, 2 µg/mL (≈ 5.38 µM) for the second.

Compared with COC(=O)n1cc(Cc2nc(Cl)c(CC(C)C)n(OC)c2=O)c2ccccc21 [Compound A-47, 5-Chloro-6-isobutyl-3-[(1-methoxycarbonyl)indol-3-yl]methyl-1-methoxy-12,-dihydropyrazin-2-one], COc1c(Cc2cn(C)c3ccccc23)nc(OCc2ccccc2)c(CC(C)C)[n+]1[O-] [Compound E-67a, 3-Benzyloxy-2-isobutyl-5-[(1-methyl)indol-3-yl]methyl-6-methoxypyrazine 1-oxide] is 2.5-fold lower in IC50: 25 µg/mL (≈ 61.9 µM) for the first, 10 µg/mL (≈ 23.2 µM) for the second.

Going from CC(C)C[C@@H]1C(=O)N(C)[C@@H](Cc2cn(C)c3ccccc23)C(=O)N1O [Compound E-73a, (3S,6R)-1-Hydroxy-6-isobutyl-4-methyl-3-[(1-methyl)indol-3-yl]methylpiperazine-2,5-dione] to CC(C)C[C@@H]1C(=O)N(C)[C@@H](Cc2c[nH]c3ccccc23)C(=O)N1O [Compound E-72a, (3S,6R)-1-Hydroxy-3-(indol-3-yl)methyl-6-isobutyl-4-methylpiperazine-2,5-dione], the IC50 falls from 2 µg/mL (≈ 5.82 µM) to 0.8 µg/mL (≈ 2.43 µM) (2.5-fold).

First: CC(C)Cc1c(=O)[nH]c(-c2c[nH]c3ccccc23)c(Cl)[n+]1[O-] [Compound E-30, 5-Chloro-6-(indol-3-yl)-3-isobutyl-1,2-dihydropyrazin-2-one 4-oxide]
Second: CC(C)Cc1c(=O)[nH]c(Cc2c[nH]c3ccccc23)c(N)[n+]1[O-] [Compound A-62, 5-amino-6-(indol-3-yl)methyl-3-isobutyl-1,2-dihydropyrazin-2-one 4-oxide]
The IC50 of the first is 1.5-fold lower: 8 µg/mL (≈ 25.2 µM) for the first, 12 µg/mL (≈ 38.4 µM) for the second.

First: CCc1c(Cc2c[nH]c3ccccc23)[nH]c(=O)c(CC(C)C)[n+]1[O-] [Compound A-82b, 5-Ethyl-6-(indol-3-yl)methyl-3-isobutyl-1,2-dihydropyrazin-2-one 4-oxide]
Second: CCOc1c(Cc2c[nH]c3ccccc23)[nH]c(=O)c(CC(C)C)[n+]1[O-] [Compound E-12, 5-Ethoxy-6-(indol-3-yl)methyl-3-isobutyl-1,2-dihydropyrazin-2-one 4-oxide]
The IC50 of the first is 1.5-fold higher: 12 µg/mL (≈ 36.9 µM) for the first, 8 µg/mL (≈ 23.4 µM) for the second.

First: COc1c(Cc2c[nH]c3ccccc23)[nH]c(=O)c(Cc2c[nH]c3ccccc23)[n+]1[O-] [Compound E-6g, 3,6-Di(indol-3-yl)methyl-5-methoxy-1,2-dihydropyrazin-2-one 4-oxide]
Second: COc1c(Cc2c[nH]c3ccccc23)[nH]c(=O)c(Cc2ccccc2)[n+]1[O-] [Compound E-6d, 3-Benzyl-6-(indol-3-yl)methyl-5-methoxy-1,2-dihydropyrazin-2-one 4-oxide]
The IC50 of the first is 3.3-fold lower: 1.5 µg/mL (≈ 3.75 µM) for the first, 5 µg/mL (≈ 13.8 µM) for the second.

Going from CSc1c(Cc2c[nH]c3ccccc23)[nH]c(=O)c(CC(C)C)[n+]1[O-] [Compound E-57c, 6-(Indol-3-yl)methyl-3-isobutyl-5-methylthio-1,2-dihydropyrazin-2-one 4-oxide] to CC(C)Cc1c(=O)[nH]c(Cc2c[nH]c3ccccc23)c([S+](C)[O-])[n+]1[O-] (stereo not drawn) [Compound E-58, 6-(Indol-3-yl)methyl-3-isobutyl-5-methylsulfinyl-1,2-dihydropyrazin-2-one 4-oxide], the IC50 falls from 10 µg/mL (≈ 29.1 µM) to 6 µg/mL (≈ 16.7 µM) (1.7-fold).

Compared with COC1=N[C@@H](CC(C)C)C(=O)N/C1=C\c1c[nH]c2ccccc12 [Compound A-17, (3S,Z)-6-(Indol-3-yl)methylidene-3-isobutyl-5-methoxy-1,2,3,6-tetrahydropyrazin-2-one], COc1nc(CC(C)C)c(=O)[nH]c1Cc1c[nH]c2ccccc12 [Compound A-16] is 3.3-fold higher in IC50: 15 µg/mL (≈ 48.2 µM) for the first, 50 µg/mL (≈ 161 µM) for the second.

Going from CC(C)Cc1c(=O)[nH]c(Cc2c[nH]c3ccccc23)c(S(C)(=O)=O)[n+]1[O-] [Compound E-57d, 6-(Indol-3-yl)methyl-3-isobutyl-5-methylsulfonyl-1,2-dihydropyrazin-2-one 4-oxide] to CC(C)Cc1c(=O)[nH]c(Cc2c[nH]c3ccccc23)c(OC(C)C)[n+]1[O-] [Compound E-46a, 6-(Indol-3-yl)methyl-3-isobutyl-5-isopropoxy-1,2-dihydroipyrazin-2-one 4-oxide], the IC50 falls from 10 µg/mL (≈ 26.6 µM) to 3 µg/mL (≈ 8.44 µM) (3.3-fold).

First: COc1c(Cn2ccc3ccccc32)[nH]c(=O)c(CC(C)C)[n+]1[O-] [Compound E-36p, 6-(Indol-1-yl)methyl-3-isobutyl-5-methoxy-1,2-dihydropyrazin-2-one 4-oxide]
Second: COc1c(Cc2c[nH]c3ccccc23)[nH]c(=O)c(CC2CCCCC2)[n+]1[O-] [Compound E-6f, 3-Cyclohexylmethyl-6-(indol-3-yl)methyl-5-methoxy-1,2-dihydropyrazin-2-one 4-oxide]
The IC50 of the first is 2-fold higher: 8 µg/mL (≈ 24.4 µM) for the first, 4 µg/mL (≈ 10.9 µM) for the second.
